Test results taken from patent publication US20210070748A1, “INHIBITORS OF BRUTONS TYROSINE KINASE” (Pharmacyclics LLC, priority 2015, published 2021).

Legend:
Assay type in all cases: biochemical
JAK3 = biological target: T1, JAK3 (Homo sapiens, UniProt P52333); test: Inhibition of a panel of kinases, in vitro HotSpot kinase assay: JAK3; conditions: D-compounds panel data; 1 μM ATP; read-out: IC50 JAK3
T1 sequence (P52333 1-1124): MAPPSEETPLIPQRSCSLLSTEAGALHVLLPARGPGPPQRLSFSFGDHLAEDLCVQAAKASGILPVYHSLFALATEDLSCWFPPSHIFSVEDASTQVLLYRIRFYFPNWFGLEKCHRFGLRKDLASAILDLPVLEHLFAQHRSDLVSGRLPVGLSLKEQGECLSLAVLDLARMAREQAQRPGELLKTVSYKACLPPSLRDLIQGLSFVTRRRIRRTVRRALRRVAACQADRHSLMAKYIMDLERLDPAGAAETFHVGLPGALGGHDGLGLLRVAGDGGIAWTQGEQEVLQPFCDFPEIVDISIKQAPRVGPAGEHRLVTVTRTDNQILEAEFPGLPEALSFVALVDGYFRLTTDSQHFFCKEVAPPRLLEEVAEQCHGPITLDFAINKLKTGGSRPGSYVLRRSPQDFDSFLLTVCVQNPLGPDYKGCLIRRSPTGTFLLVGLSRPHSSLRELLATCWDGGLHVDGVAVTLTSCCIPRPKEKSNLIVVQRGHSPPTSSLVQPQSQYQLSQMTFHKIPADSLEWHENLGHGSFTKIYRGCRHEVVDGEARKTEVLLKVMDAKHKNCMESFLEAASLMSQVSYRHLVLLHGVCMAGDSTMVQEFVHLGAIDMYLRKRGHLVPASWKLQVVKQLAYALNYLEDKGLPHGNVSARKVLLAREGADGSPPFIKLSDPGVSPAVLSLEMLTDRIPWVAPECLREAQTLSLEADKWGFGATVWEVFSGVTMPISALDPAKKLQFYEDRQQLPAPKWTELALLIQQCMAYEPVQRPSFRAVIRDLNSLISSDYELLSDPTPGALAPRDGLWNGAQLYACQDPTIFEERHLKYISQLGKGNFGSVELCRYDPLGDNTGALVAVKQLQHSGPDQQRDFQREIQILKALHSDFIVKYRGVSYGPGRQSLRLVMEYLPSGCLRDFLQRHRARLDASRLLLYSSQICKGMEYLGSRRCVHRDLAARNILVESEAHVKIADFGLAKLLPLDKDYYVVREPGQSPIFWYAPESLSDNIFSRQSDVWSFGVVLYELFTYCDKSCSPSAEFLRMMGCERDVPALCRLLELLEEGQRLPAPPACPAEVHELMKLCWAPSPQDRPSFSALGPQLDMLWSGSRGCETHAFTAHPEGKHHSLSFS

ITK = biological target: T2, ITK (Homo sapiens, UniProt Q08881); test: Inhibition of a panel of kinases, in vitro HotSpot kinase assay: ITK; conditions: D-compounds panel data; 1 μM ATP
T2 sequence (Q08881 1-620): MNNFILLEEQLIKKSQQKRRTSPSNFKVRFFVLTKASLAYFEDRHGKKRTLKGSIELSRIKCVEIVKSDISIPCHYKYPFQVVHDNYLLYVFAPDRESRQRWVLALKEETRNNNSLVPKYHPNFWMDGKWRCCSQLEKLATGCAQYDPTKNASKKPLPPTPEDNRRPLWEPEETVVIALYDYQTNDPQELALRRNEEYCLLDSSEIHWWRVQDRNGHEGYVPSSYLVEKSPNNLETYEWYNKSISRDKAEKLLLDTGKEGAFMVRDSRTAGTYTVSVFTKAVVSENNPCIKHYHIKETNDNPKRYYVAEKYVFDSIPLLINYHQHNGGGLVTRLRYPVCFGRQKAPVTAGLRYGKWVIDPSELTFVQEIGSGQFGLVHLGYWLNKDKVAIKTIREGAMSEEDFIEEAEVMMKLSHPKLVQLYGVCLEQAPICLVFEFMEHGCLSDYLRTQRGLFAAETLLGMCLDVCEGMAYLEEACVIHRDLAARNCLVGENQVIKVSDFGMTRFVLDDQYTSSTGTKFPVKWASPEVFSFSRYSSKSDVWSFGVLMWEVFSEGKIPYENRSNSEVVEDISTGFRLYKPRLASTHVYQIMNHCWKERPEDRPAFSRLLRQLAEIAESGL
Method: (§1) The degree of inhibition of a panel of kinases is determined using the in vitro HotSpot kinase assay (purified enzymes, ^33P-ATP, an appropriate substrate and 1 μM ATP).

EGFR = EGFR (Homo sapiens, UniProt P00533); test: Inhibition of a panel of kinases, in vitro HotSpot kinase assay: EGFR; conditions: D-compounds panel data; 1 μM ATP
EGFR, sequence (P00533 25-1210): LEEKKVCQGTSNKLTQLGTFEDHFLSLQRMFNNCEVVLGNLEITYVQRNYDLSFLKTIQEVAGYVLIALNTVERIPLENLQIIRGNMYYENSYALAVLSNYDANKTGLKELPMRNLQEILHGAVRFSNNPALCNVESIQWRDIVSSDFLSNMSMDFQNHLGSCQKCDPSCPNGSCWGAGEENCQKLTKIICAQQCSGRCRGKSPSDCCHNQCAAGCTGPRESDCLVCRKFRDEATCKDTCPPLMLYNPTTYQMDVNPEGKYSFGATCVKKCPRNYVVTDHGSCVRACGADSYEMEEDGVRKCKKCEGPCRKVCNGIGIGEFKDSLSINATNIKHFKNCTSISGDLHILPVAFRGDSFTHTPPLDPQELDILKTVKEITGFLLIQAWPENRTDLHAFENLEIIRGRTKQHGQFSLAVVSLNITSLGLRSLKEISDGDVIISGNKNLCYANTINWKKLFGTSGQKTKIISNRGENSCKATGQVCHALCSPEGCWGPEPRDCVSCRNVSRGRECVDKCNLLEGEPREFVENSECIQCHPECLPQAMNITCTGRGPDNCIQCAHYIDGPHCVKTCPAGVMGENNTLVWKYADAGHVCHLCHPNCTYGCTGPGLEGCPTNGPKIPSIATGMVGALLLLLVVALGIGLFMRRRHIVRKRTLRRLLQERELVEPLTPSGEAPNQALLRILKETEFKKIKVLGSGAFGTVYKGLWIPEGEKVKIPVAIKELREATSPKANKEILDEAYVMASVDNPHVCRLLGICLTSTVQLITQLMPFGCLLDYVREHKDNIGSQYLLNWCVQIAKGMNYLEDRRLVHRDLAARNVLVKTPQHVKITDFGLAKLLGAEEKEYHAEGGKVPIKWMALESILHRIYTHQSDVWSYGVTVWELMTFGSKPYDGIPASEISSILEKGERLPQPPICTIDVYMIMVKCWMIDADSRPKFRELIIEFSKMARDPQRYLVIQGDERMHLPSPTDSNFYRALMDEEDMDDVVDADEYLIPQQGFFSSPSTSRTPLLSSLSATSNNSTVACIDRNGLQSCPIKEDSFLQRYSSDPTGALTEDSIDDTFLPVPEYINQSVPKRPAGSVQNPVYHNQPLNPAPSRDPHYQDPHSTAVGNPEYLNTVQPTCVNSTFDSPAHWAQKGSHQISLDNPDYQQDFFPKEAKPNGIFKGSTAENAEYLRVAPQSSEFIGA
Method: as §1

- IC50 (JAK3): > 10 µM
- IC50 (ITK): > 10 µM
- IC50 (EGFR): > 10 µM
SMILES: C[C@@H]1[C@H](NC(=O)c2ccc(C3CC3)cc2)CCCN1c1cnc(C(N)=O)c(Nc2ccc3c(c2)OC(F)(F)O3)n1 [Example D-315, 5-[(2R,3R)-3-(4-cyclopropylbenzamido)-2-methylpiperidin-1-yl]-3-[(2,2-difluoro-2H-1,3-benzodioxol-5-yl)amino]pyrazine-2-carboxamide]
